Paper PMC5382172 (Frontiers in Molecular Neuroscience, 2017)
pEC50: −log10 of the molar value. Values joined by “and” are separate entries in the source; they are usually repeats but may differ in a detail not shown here. Equal entries are not always repeated.

How the values were obtained:
[1] = biological target: T1, GluClαWT (GLC-1) homomeric receptor (Caenorhabditis elegans, UniProt G5EBR3); assay: Whole-cell patch clamp in CHO cells transfected with GluClαWT subunit alone; format: cell-based; conditions: αWT alone, 500 nM IVM, -60 mV
T1 construct: entry codes of the full-length subunits used in this study; expressed in transfected cells; host or cells: CHO cells, transient transfection, pcDNA3.1
T1 sequence (G5EBR3 21-461): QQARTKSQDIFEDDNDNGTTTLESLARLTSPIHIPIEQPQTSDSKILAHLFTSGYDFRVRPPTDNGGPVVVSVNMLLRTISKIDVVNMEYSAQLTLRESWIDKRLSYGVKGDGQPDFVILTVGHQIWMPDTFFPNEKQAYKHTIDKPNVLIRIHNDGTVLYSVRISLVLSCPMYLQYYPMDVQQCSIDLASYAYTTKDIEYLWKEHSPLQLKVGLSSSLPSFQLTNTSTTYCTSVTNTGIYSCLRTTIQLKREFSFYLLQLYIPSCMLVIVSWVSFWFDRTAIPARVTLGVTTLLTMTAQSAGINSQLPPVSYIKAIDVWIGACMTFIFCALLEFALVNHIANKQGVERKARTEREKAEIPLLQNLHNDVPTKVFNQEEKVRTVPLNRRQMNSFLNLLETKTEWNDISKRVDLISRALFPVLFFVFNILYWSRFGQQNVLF

[2] = biological target: T2, GluClαWT/βWT receptor (Caenorhabditis elegans, UniProt G5EBR3+Q17328); assay: Whole-cell patch clamp in CHO cells, GluClαWT/βWT receptor; format: cell-based
T2 construct: entry codes of the full-length subunits used in this study; expressed in transfected cells; host or cells: CHO cells, transient co-transfection 1:1, pcDNA3.1
T2 sequence (G5EBR3 21-461): T1 sequence (G5EBR3 21-461)
T2 sequence (Q17328 23-434): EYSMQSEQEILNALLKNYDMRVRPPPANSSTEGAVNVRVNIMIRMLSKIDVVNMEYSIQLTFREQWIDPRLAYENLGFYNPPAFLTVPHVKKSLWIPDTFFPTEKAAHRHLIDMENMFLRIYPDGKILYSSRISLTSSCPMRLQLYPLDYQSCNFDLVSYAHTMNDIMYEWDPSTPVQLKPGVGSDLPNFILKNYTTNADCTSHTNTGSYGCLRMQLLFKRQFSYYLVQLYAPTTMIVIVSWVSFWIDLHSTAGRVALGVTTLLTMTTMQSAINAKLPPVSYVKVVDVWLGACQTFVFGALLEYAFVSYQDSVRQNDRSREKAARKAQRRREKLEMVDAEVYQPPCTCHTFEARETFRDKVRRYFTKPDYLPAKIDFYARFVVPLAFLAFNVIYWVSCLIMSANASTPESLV
Experimental: (§1) Chinese hamster ovary (CHO) cells were cultured as previously (Bar-Lev et al., [2011]) in Dulbecco’s Modified Eagle Medium (DMEM) containing 10% fetal calf serum, 2 mM glutamax, 100 Units/ml penicillin G and 100 μg/ml streptomycin, and grown in 5% CO2 at 37°C under 90%–95% humidity. The cells were seeded on glass coverslips (13-mm diameter) placed in a 24-multiwell plate. […] For the expression of GluCl receptors, cells were transiently co-transfected with pcDNA3.1 plasmids containing the ORFs of interest using transit-LT1 transfection reagent (Mirus, Madison, WI, USA), according to the manufacturer’s protocol. The cDNAs encoding the C. elegans GluClα (GLC-1) or its mutated versions and the GluClβ (GLC-2) subunits (200–600 ng per well) were used at 1:1 ratio. The pIRES-CD8 plasmid (200 ng per well) was added to enable the visualization of the expressing cells by beads coated with anti-CD8 antibodies (Invitrogen). For high-level expression of the GluClαF276A/βWT mutant receptor in experiments assigned to determine its IVM-EC50, we used the X-tremeGENE HP DNA Transfection Reagent (Roche Life Science). Recordings were performed 72–96 h following the transfection.
Whole-cell patch clamp recordings were performed as described previously (Bar-Lev et al., [2011]) in CHO cells that were prepared as detailed above. The normal external solution (NES) contained (in millimolar): 140 NaCl, 2.8 KCl, 2 CaCl2, 2 MgCl2, 10 glucose and 10 HEPES, adjusted to pH 7.35 with NaOH (310 mOsm/L). The pipette solution contained (in millimolar): 130 KCl, 4 MgCl2, 4 Na2ATP, 1 EGTA and 10 HEPES, adjusted to pH 7.35 with KOH (290 mOsm/L). The osmolarity of these solutions was maintained by adding sucrose. The electrode resistance was 6–10 MΩ when filled with the pipette solution. External solutions were applied onto the cell by using the VC-77SP fast-step system (Warner Instruments, Hamden, CT, USA) combined with N2 pressure of 3–4 psi to produce laminar flow of the external solution onto the patched cell. All measurements were performed at room temperature. The currents were measured with an Axopatch 200B patch-clamp amplifier (Molecular Devices, Sunnyvale, CA, USA) and a Digidata 1440A interface (Molecular Devices). Acquisition of recording data was performed at 2.5 kHz and recordings were low-pass filtered at 1 kHz, through a four-pole Bessel filter. The pClamp 10 software (Molecular Devices) was used for data acquisition. […] Five-hundred milliseconds after the application started (which is also after the current reached to its peak at −60 mV), the voltage was stepped from −60 mV to −80 mV for 50 ms followed by a 250-ms-long voltage ramp ranging from −80 mV to +80 mV.
Dose-response curves were fitted to the data points by a nonlinear regression using the Hill Equation 1,

[3] = biological target: T3, GluClαF276W/βWT receptor (Caenorhabditis elegans, UniProt G5EBR3+Q17328, F276W); assay: Whole-cell patch clamp in CHO cells, GluClαF276W/βWT receptor; format: cell-based; conditions: 500 nM IVM, -60 mV
T3 construct: entry codes of the full-length subunits used in this study; expressed in transfected cells; host or cells: CHO cells, transient co-transfection 1:1, pcDNA3.1
Experimental: as §1, with “For high-level expression of the GluClαF276A/βWT mutant receptor in experiments assigned to determine its IVM-EC50, we used the X-tremeGENE HP DNA Transfection Reagent (Roche Life Science). Recordings were performed 72–96 h following the transfection.” left out
Whole-cell patch clamp recordings were performed as described previously (Bar-Lev et al., [2011]) in CHO cells that were prepared as detailed above. […] The currents were measured with an Axopatch 200B patch-clamp amplifier (Molecular Devices, Sunnyvale, CA, USA) and a Digidata 1440A interface (Molecular Devices). […]

[4] = biological target: T2, GluClαWT/βWT receptor; set-up: method as in Degani-Katzav et al., [2016]; conditions: CHO cells co-transfected with WT α and β subunits; ref Degani-Katzav et al., [2016]; cited from earlier work
[5] = cumulative IVM concentrations, -60 mV

T3 sequence (G5EBR3 21-461 F276W, one chain of several): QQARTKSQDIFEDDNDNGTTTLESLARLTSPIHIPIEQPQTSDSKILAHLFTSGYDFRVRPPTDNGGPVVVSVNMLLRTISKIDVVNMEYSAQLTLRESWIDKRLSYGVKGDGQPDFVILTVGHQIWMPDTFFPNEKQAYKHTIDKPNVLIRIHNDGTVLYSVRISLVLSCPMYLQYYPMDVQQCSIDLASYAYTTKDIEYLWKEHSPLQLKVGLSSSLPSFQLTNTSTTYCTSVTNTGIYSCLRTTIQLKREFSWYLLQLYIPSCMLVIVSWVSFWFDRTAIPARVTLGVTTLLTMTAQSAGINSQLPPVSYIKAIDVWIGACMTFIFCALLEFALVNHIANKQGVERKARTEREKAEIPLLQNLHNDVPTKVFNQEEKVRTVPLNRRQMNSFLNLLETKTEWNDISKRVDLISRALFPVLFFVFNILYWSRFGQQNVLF

CC[C@H](C)[C@H]1O[C@]2(CC[C@@H]1C)C[C@@H]1C[C@@H](C/C=C(\C)[C@@H](O[C@H]3C[C@H](OC)[C@@H](O[C@H]4C[C@H](OC)[C@@H](O)[C@H](C)O4)[C@H](C)O3)[C@@H](C)/C=C/C=C3\CO[C@@H]4[C@H](O)C(C)=C[C@@H](C(=O)O1)[C@]34O)O2 [IVM, ivermectin]
IVM (500 nM) Amplitude [1]: 1.0 ± 0.3 (14) nA | Fold decrease in Glu-EC50 observed after pre-exposure to IVM ([2]; 7 nM IVM): ~ 5 fold and 5 fold | fold-potentiation of Glu-elicited response by IVM ([2]; 0.3 mM Glu before and after exposure to 7 nM IVM): ~ 6 fold and 5.9 ± 0.6 fold | IVM (500 nM) Amplitude ([2]; CHO cells, 500 nM IVM, -60 mV): 1.8 ± 0.1 nA | pEC50 [2, 5]: 7.40 | Hill coefficient of activation by IVM [2, 5]: 1.5 and 1.5 ± 0.2 | IVM (500 nM) Amplitude [3]: 1.2 ± 0.2 nA | response to IVM [4]: robust responses
